In publication PMC10986989, “Reciprocal regulation of enterococcal cephalosporin resistance by products of the autoregulated yvcJ-glmR-yvcL operon enhances fitness during cephalosporin exposure” (PLOS Genetics, 2024) one finds thermal shift data, which are given here for 1 compound.

This test deals with T1, GlmR (Enterococcus faecalis, UniProt A0ACD6TA08).
T1 construct: gene OG1RF_10501
The test is described as follows: thermal shift assay (SYPRO Orange). Format: binding. The note with it: 10 uM protein, 1 mM ligand.

Turning to `CC(=O)N[C@H]1[C@@H](OP(=O)(O)OP(=O)(O)OC[C@H]2O[C@@H](n3ccc(=O)[nH]c3=O)[C@H](O)[C@@H]2O)O[C@H](CO)[C@@H](O)[C@@H]1O` [UDP-GlcNAc], the thermal shift result was “When incubated with UDP-GlcNAc, both YvcJ and GlmR exhibited clear thermal shifts”.
